Laboratory results from ChEMBL document CHEMBL1133789, “The discovery of anthranilic acid-based MMP inhibitors. Part 1: SAR of the 3-position” (Bioorg Med Chem Lett, 2001).
Activity calls are given as the source filed them.

Key:
[1] = target: T1, Matrix metalloproteinase-9 (Homo sapiens, UniProt P14780); assay: Inhibitory activity against Matrix metalloprotease-9
Interstitial collagenase = target: T2, Interstitial collagenase (Homo sapiens, UniProt P03956); assay: Inhibitory activity against Matrix metalloprotease-1
T2 sequence (P03956 whole entry): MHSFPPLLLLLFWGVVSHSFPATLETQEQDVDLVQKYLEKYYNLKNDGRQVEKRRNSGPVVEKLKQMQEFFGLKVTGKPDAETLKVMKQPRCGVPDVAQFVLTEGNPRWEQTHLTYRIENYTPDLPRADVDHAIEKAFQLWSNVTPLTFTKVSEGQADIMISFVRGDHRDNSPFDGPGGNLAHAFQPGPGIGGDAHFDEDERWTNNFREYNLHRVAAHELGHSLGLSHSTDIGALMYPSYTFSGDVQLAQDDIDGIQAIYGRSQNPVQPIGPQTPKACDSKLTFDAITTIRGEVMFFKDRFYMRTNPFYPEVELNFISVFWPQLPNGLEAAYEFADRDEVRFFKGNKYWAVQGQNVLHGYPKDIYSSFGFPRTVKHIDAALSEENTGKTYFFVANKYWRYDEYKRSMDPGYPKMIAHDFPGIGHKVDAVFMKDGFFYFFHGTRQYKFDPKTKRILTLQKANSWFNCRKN

Bos taurus [2] = organism: Bos taurus; assay: animal or person; details: po, read-out: Inhibition
[3] = target: Disintegrin and metalloproteinase domain-containing protein 17 (Homo sapiens, UniProt P78536)
Description: Inhibition of TNF-alpha converting enzyme (TACE)

Collagenase 3 = Collagenase 3 (Homo sapiens, UniProt P45452)
Description: Inhibitory activity against Matrix metalloprotease-13

[4] = target: T3, Interstitial collagenase (Homo sapiens) (UniProt P03956); assay: Inhibition of Matrix metalloprotease-1 at 1 uM
T3 sequence (whole entry): T2 sequence (P03956 whole entry)

[5] = target: T3, Interstitial collagenase (Homo sapiens); assay: Inhibition of Matrix metalloprotease-1 at 1 uM (inactive)
[6] = target: T3, Interstitial collagenase (Homo sapiens); assay: Inhibition of Matrix metalloprotease-1 (inactive)
[7] = target: T1, Matrix metalloproteinase-9; assay: Dose at which the compound was equipotent with CGS-27023 against matrix metalloprotease-9 in the dialysis tubing implant assay; format: functional
Rattus norvegicus = assay: In vivo inhibition of collagen degradation in a rat sponge wrapped cartilage model at a dose of 50 mg/kg ip; format: functional; details: route intraperitoneal
[8] = target: T1, Matrix metalloproteinase-9; assay: Tested the po dose effective against Matrix metalloprotease-9 in the dialysis tubing implant assay; format: functional, organism-based
Bos taurus [9] = organism: Bos taurus; assay: Inhibition of collagen degradation in a bovine articular cartilage assay; format: functional

T1 sequence (P14780 whole entry): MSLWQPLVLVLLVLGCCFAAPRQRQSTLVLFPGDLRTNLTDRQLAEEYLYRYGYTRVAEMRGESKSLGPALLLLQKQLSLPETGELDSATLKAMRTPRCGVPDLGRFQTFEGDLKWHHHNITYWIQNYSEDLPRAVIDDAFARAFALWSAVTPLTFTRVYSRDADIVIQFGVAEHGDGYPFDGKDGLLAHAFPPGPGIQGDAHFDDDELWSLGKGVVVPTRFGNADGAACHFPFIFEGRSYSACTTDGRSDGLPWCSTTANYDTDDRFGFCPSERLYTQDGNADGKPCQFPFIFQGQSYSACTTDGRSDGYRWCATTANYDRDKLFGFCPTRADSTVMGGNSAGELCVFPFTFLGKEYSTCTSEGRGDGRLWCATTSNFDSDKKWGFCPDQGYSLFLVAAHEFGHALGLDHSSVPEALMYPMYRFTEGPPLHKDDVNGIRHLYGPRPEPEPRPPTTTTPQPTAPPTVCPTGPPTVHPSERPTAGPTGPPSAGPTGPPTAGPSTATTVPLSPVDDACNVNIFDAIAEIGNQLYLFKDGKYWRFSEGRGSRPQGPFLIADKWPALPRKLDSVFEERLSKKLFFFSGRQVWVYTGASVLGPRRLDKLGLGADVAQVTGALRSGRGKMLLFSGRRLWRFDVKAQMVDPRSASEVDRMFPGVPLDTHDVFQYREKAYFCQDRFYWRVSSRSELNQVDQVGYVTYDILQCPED
Chain of Disintegrin and metalloproteinase domain-containing protein 17 (P78536 whole entry, the tested form may be a part): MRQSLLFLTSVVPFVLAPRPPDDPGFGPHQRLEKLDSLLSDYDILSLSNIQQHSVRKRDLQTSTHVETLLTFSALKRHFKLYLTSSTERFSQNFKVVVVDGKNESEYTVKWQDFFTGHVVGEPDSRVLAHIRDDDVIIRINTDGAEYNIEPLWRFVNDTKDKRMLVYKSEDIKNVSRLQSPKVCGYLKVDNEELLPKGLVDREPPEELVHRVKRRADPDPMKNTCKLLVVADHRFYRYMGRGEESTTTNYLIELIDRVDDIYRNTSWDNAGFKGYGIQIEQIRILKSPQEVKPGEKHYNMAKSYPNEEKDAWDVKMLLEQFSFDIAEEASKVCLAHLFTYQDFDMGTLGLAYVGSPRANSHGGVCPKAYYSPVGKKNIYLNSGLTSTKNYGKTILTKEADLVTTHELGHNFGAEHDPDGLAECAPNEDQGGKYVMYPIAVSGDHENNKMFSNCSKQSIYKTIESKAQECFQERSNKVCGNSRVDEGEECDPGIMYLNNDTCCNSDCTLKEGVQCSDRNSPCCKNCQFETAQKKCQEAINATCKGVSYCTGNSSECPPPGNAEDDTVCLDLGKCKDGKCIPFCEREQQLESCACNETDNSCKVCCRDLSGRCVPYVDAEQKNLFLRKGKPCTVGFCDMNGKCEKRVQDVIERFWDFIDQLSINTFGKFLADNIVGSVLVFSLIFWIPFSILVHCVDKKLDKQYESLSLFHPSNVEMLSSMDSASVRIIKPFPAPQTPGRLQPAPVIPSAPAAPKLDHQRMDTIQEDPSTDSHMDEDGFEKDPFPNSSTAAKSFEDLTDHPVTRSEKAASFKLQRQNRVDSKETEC

COc1ccc(S(=O)(=O)N(Cc2ccccc2)c2c(OC(C)(C)C(=O)NO)cccc2C(=O)NO)cc1 was tested, and the IC50 [1] was 4 nM and the IC50 (Interstitial collagenase) was 597 nM.
Work on COc1ccc(S(=O)(=O)N(Cc2cccnc2)[C@@H](C(=O)NO)C(C)C)cc1 [CGS-27023A] yielded an inhibition in vivo at 50 mg/kg (Bos taurus [2]) of 52%.
Work on COc1ccc(S(=O)(=O)N(Cc2ccccc2)c2c(OCC(=O)NO)cccc2C(=O)NO)cc1 yielded an IC50 [1] of 2 nM, an IC50 [3] of 81 nM and an IC50 (Collagenase 3) of 1 nM.
COc1ccc(S(=O)(=O)N(Cc2ccccc2)c2c(C(=O)NO)cccc2[N+](=O)[O-])cc1 gave an IC50 [1] of 13 nM, an IC50 (Interstitial collagenase) of 202 nM and an IC50 (Collagenase 3) of 42 nM.
Work on COc1ccc(S(=O)(=O)N(Cc2ccccc2)c2c(C(=O)NO)cccc2C(F)(F)F)cc1 yielded an inhibition [4] of 41% and an IC50 (Collagenase 3) of 136 nM.
For COc1ccc(S(=O)(=O)N(Cc2ccccc2)c2cccc(C(=O)NO)c2)cc1, the inhibition [5] was “inactive”.
With COc1ccc(S(=O)(=O)N(Cc2ccccc2)c2ccc(C(=O)NO)cc2)cc1 the inhibition [6] was “inactive”.
COc1ccc(S(=O)(=O)N(Cc2cccnc2)c2c(C)cccc2C(=O)NO)cc1 gave an IC50 (Interstitial collagenase) of 143 nM, a DOSE [7] of 50 mg/kg and an inhibition in vivo at 50 mg/kg (Rattus norvegicus) of 51%. For the same compound, the ED50 [8] was 33 mg/kg and the Inhibition (Bos taurus [9]) was 49%.
For COC(=O)c1cccc(C(=O)NO)c1N(Cc1cccnc1)S(=O)(=O)c1ccc(OC)cc1, the IC50 [1] was 6 nM.
With COc1ccc(S(=O)(=O)N(Cc2ccccc2)c2c(C(=O)NO)cccc2N(C)C)cc1 the inhibition [4] was 19%.
COc1ccc(S(=O)(=O)N(Cc2ccccc2)c2c(OC)cccc2C(=O)NO)cc1 gave an IC50 (Interstitial collagenase) of 520 nM.
